Consider 12 molecules from ChEMBL document CHEMBL1201862, “PubChem BioAssay data set” (2004).

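Step 1: Grow cells in 96-well plates. Step 2: Expose to compound for 48 hours at 5 concentrations. Step 3: Interpolate endpoints linearly; if unreached, use highest concentration. GI50 = concentration required for 50% inhibition of growth.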 The source made the active and inactive calls. Rule as the data show it: active = GI50 up to about 1.1 µM and inactive = higher.

What all share (test): NCI-60 cell line screen, 48 h
The test system of assay [1] is CCRF-CEM.
Assay [2] deals with EKVX.
Assay [3] has as its system HCT-116.
The test system of assay [4] is HCT-15.
The subject of assay [5] is HOP-62.
Assay [6] has as its system HOP-92.
The subject of assay [7] is MOLT-4.
The test system of assay [8] is Malme-3M.
For assay [9], the system named is NCI-H460.
Assay [10] has as its system RXF 393.
Assay [11] concerns SF-268.
Assay [12] has as its system SF-539.
For assay [13], the system named is SK-MEL-5.
The test system of assay [14] is SN12C.
Assay [15] deals with SW-620.
Assay [16] relates to TK-10.
Assay [17] concerns U-251.
Assay [18] concerns SK-MEL-28.

Regarding `C/C=C/C1(NS(=O)(=O)c2ccc(C)cc2)CCC(C(C)(C)C)CC1` (stereo not drawn), the GI50 was 19.5 µM (inactive) in [1]; 23 µM (inactive) in assay [2]; 20.1 µM (inactive) in [3]; 28.6 µM in assay [4]; 22 µM (inactive) in [5]; 19.7 µM (inactive) in assay [6]. Besides, the GI50 is 16.5 µM (inactive) in assay [7]; 22.2 µM (inactive) in [8]; 21.7 µM (inactive) in assay [9]; 24.3 µM (inactive) in assay [10]; 29.6 µM (inactive) in assay [11]; 21.4 µM (inactive) in [12]. The GI50 in assay [13] is 17.5 µM (inactive); in assay [14] it was 18.2 µM (inactive); in assay [15], 26.1 µM (inactive); in assay [16] it was 35.8 µM (inactive); in [17] it was 16.1 µM (inactive).

`CCOC(=O)/C(=C/c1ccc(C(=O)OC)cc1)N(CC)CC`: the GI50 was 30.6 µM (inactive) in assay [1]; 35.4 µM (inactive) in [2]; 37.2 µM (inactive) in [3]; 33.3 µM in [4]; 51.6 µM (inactive) in assay [5]; 49.9 µM (inactive) in assay [6]. Also, the GI50 in assay [7] is 29.1 µM (inactive); in assay [8] it was 90.4 µM (inactive); in assay [11] it was 40.1 µM (inactive); in assay [12] it was 25.3 µM (inactive); in assay [18], > 100 µM (inactive); in [13] it was 37.7 µM (inactive). Also, the GI50 in assay [14] is 70.8 µM (inactive); in assay [15], 35.3 µM (inactive); in assay [16] it was 71.6 µM (inactive); in assay [17], 42 µM (inactive).

As to `CC1(C)C(=NNC(=S)NN)C(C)(C)C1=NNC(=S)NN`, the GI50 is 60.8 µM (inactive) in assay [1]; > 100 µM (inactive) in [2]; > 100 µM (inactive) in assay [5]; > 100 µM (inactive) in assay [6]; > 100 µM (inactive) in assay [8]; > 100 µM (inactive) in assay [10]. The GI50 in assay [11] is > 100 µM (inactive); in assay [12] it was > 100 µM (inactive); in assay [18], > 100 µM (inactive); in [13], 58.5 µM (inactive); in assay [14], > 100 µM (inactive); in assay [15] it was > 100 µM (inactive). Moreover, the GI50 in assay [16] was > 100 µM (inactive).

For `COc1cccc(C2N3CCCCC3[C@@H]3c4[nH]c5ccccc5c4CCN23)c1OC` (stereo partly drawn), the GI50 was 17.3 µM (inactive) in [1]; 17.9 µM (inactive) in [2]; 17.3 µM (inactive) in assay [3]; 17.1 µM in assay [4]; 15.9 µM (inactive) in assay [5]; 15.7 µM (inactive) in assay [6]. Moreover, the GI50 in assay [7] is 17.5 µM (inactive); in assay [9] it was 19.2 µM (inactive); in assay [10], 13.4 µM (inactive); in assay [11], 11.5 µM (inactive); in assay [12], 15 µM (inactive); in assay [18], 16.8 µM (inactive). The GI50 in assay [13] was 15.8 µM (inactive); in assay [14] it was 16.9 µM (inactive); in [15] it was 17.3 µM (inactive); in assay [16], 19.3 µM (inactive); in [17], 17.2 µM (inactive).

As for `N#CCCN(c1ccc(/C=N/c2ccccc2Cl)cc1)S(=O)(=O)c1ccccc1`, the GI50 in [2] is > 100 µM (inactive); in assay [3], > 100 µM (inactive); in assay [4] it was over 100 µM; in assay [5], > 100 µM (inactive); in assay [6], > 100 µM (inactive); in [7] it was > 100 µM (inactive). Further, the GI50 in assay [8], in assay [9], in assay [10], in assay [11], in [12] and in [18] was > 100 µM (inactive) each time. Further, the GI50 in assay [13], in assay [14], in assay [15], in assay [16] and in [17] was > 100 µM (inactive) throughout.

On to `N#CC(Sc1ccccc1)C(N)=O` (stereo not drawn), for which the GI50 is > 100 µM (inactive) in assay [1]; > 100 µM (inactive) in assay [2]; > 100 µM (inactive) in assay [3]; over 100 µM in assay [4]; > 100 µM (inactive) in [5]; > 100 µM (inactive) in assay [6]. The GI50 in assay [7] was > 100 µM (inactive); in assay [8], > 100 µM (inactive); in [9] it was > 10 µM (inactive); in [10] it was > 100 µM (inactive); in [11], > 100 µM (inactive); in assay [12] it was > 100 µM (inactive). For the same molecule, the GI50 in [13], in [14], in assay [15], in assay [16] and in assay [17] was > 100 µM (inactive) in each case.

Turning to `CCCCNS(=O)(=O)c1ccc(-c2ccc3c(c2)-c2ccc(S(=O)(=O)NCCCC)cc2S3(=O)=O)cc1`, the GI50 in assay [1] was 26.1 µM (inactive); in assay [2], 39.4 µM (inactive); in assay [3], 14.9 µM (inactive); in assay [4], 72.8 µM; in [5], 14.9 µM (inactive); in assay [6], 19.3 µM (inactive). The GI50 in [7] was > 100 µM (inactive); in assay [8] it was 14.9 µM (inactive); in assay [9], 10.4 µM (inactive); in assay [10] it was 10.8 µM (inactive); in assay [11] it was 9.48 µM (inactive); in assay [12], 12.1 µM (inactive). In addition, the GI50 in assay [18] is 10 µM (inactive); in assay [13], 2.18 µM (inactive); in assay [15] it was 15.2 µM (inactive); in assay [16], 28.8 µM (inactive); in assay [17], 23 µM (inactive).

Regarding `O=C(NOC(=O)c1ccc([N+](=O)[O-])cc1)c1ccc(Cl)cc1`, the GI50 is 28.2 µM (inactive) in assay [1]; > 100 µM (inactive) in assay [2]; > 100 µM (inactive) in [3]; 35.7 µM in assay [4]; > 100 µM (inactive) in assay [5]; 27.4 µM (inactive) in assay [6]. The GI50 in [7] was 20.4 µM (inactive); in assay [8], > 100 µM (inactive); in [9], > 100 µM (inactive); in assay [10] it was 87.1 µM (inactive); in [11] it was > 100 µM (inactive); in [12], > 100 µM (inactive). In addition, the GI50 is > 100 µM (inactive) in assay [18]; 65.2 µM (inactive) in assay [13]; 62.4 µM (inactive) in [14]; 38 µM (inactive) in assay [15]; 76.7 µM (inactive) in assay [17].

`Cc1c2nc3ccccc3sc-2cc(=O)c1C`: the GI50 in [1] is 20.9 µM (inactive); in assay [2] it was > 80.4 µM (inactive); in assay [3], 12.7 µM (inactive); in assay [4], 12.9 µM; in assay [5], > 100 µM (inactive); in assay [6], > 65.9 µM (inactive). Further, the GI50 in assay [7] is 34.5 µM (inactive); in [8] it was 46.5 µM (inactive); in assay [9], 12.4 µM (inactive); in assay [10] it was 90.8 µM (inactive); in assay [11], 25.6 µM (inactive); in assay [12], 44.9 µM (inactive). The GI50 in [13] was 34.8 µM (inactive); in assay [14], > 10 µM (inactive); in assay [15] it was > 90.2 µM (inactive); in [16] it was > 100 µM (inactive); in [17], 47.5 µM (inactive).

For `CN[C@@H](C)[C@@H](N)c1ccccc1`, the GI50 is > 100 µM (inactive) in [1]; > 100 µM (inactive) in assay [2]; > 100 µM (inactive) in [3]; over 100 µM in assay [4]; > 100 µM (inactive) in assay [6]; > 100 µM (inactive) in assay [7]. Further, the GI50 in assay [8], in assay [9], in assay [10], in [12], in assay [18] and in [13] was > 100 µM (inactive) each time. Also, the GI50 in [14], in assay [15], in [16] and in assay [17] was > 100 µM (inactive) in each case.

`C/C(=C\Cc1cc(O)ccc1O)CCc1c(C)c(O)c(O)c(C=O)c1C` [PANICEIN C]: the GI50 in [1] is 3.28 µM (inactive); in assay [2] it was 36.1 µM (inactive); in [3] it was 19.1 µM (inactive); in [4] it was 31.4 µM; in [6] it was 15.7 µM (inactive); in [7], 17.1 µM (inactive). Besides, the GI50 was 32.9 µM (inactive) in [8]; 23.8 µM (inactive) in [9]; 16.1 µM (inactive) in assay [10]; 27 µM (inactive) in assay [11]; 18.4 µM (inactive) in [12]; 18.1 µM (inactive) in assay [18]. Also, the GI50 in assay [13] was 15.5 µM (inactive); in assay [14], 26.7 µM (inactive); in assay [15], 35.6 µM (inactive); in [16] it was 48.2 µM (inactive); in [17], 18.6 µM (inactive).

For `Nc1ncnc2c1ncn2C1OC(CSC(F)(F)F)C(O)C1O` (stereo not drawn), the GI50 in assay [1] is > 100 µM (inactive); in assay [2], > 100 µM (inactive); in assay [3], > 100 µM (inactive); in assay [4], over 100 µM; in assay [5] it was > 100 µM (inactive); in assay [6], > 100 µM (inactive). For the same molecule, the GI50 in assay [7], in assay [8], in assay [9], in assay [11], in [12] and in [18] was > 100 µM (inactive) each time. The GI50 in [13], in [14], in assay [15], in assay [16] and in assay [17] was > 100 µM (inactive) throughout.
